Measurements: patent publication US11279733B2, “Peptide antibiotics” (priority 2017, dated 2022)
In brackets after ≈: the same amount, converted by molar mass. Read-outs that look alike come from different tables or passages of the source. Positions of bridges follow the written chain, without caps; N, C: chain ends. Non-standard residues stand in square brackets, D forms with d. Residues, ends and D or L forms follow the SMILES beside them. *: point of attachment. Isonicotinoyl(2-Ph) = O=C(c1ccnc(-c2ccccc2)c1)*; Decanoyl(3R-OH) = CCCCCCC[C@@H](O)CC(=O)*; dDab = NCC[C@@H](N)C(=O)O; Dab = NCC[C@H](N)C(=O)O

How the values were obtained:
in vitro = conditions: human
How it was run: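 HK2 cells were seeded at 2000 per well in DMEM/F12 with 10% FBS and left to attach for 24 h at 37 °C, 5% CO2. They were then exposed for 24 h to 3-fold peptide dilutions starting from 600 μM solutions in quadruplicate. LDH release was read at 450 nm, and CC50 was fitted from dose-response curves.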

P. aeruginosa ATCC 27853 = conditions: ATCC 27853
How it was run: (§1)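 Mid-log cultures grown in Mueller Hinton broth at 37° C were tested by 2-fold broth microdilution at 5×10^5 CFU/mL final. Compounds were dissolved in water and tested over a final range of 32 to 0.015 μg/mL.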

[1] = test system: K. pneumoniae GN_106, PmxR; conditions: GN 106, PmxR
How it was run: as §1

[2] = test system: K. pneumoniae ATCC 700603, MDR; conditions: ATCC 700603
How it was run: as §1

E. coli ATCC 25922 = conditions: ATCC 25922
How it was run: as §1

[3] = test system: P. aeruginosa GN_105, PmxR; conditions: GN 105, PmxR
How it was run: as §1

K. pneumoniae ATCC 13883 = conditions: ATCC 13883
How it was run: as §1

[4] = test system: K. pneumoniae GN_102 PmxR; conditions: GN 102 PmxR
How it was run: as §1

A. baumannii ATCC 19606 = conditions: ATCC 19606
How it was run: as §1

[5] = test system: S. aureus ATCC 25923, MSSA; conditions: ATCC 25923
How it was run: as §1

[6] = test system: K. pneumoniae ATCC BAA-2146, NDM-1 pos; conditions: ATCC BAA-2146
How it was run: as §1

[7] = test system: P. aeruginosa GN_043, PmxR
How it was run: as §1

A. baumannii GN_093 PmxR = conditions: GN 093 PmxR
How it was run: as §1

SMILES: CC(C)C[C@@H]1NC(=O)[C@@H](Cc2ccccc2)NC(=O)[C@H](CCN)NC(=O)[C@@H](NC(=O)[C@@H](CCN)NC(=O)c2ccnc(-c3ccccc3)c2)CCNC(=O)[C@H]([C@@H](C)O)NC(=O)[C@H](CCN)NC(=O)[C@H](CCN)NC1=O [compound 6405, 3Phe4-PyCO-D-Dab-cyc[L-Dab-L-Dab-D-Phe-L-Leu-L-Dab-L-Dab-L-Thr]] ({Isonicotinoyl(2-Ph)}-[dDab][Dab][Dab][dF]L[Dab][Dab]T; lactam 2-C)
- CC50 at 24 h (in vitro): > 300 µM
- MIC P. aeruginosa ATCC 27853 (P. aeruginosa ATCC 27853): 8 µg/mL (≈ 7.67 µM)
- MIC K. pneumoniae GN_106, PmxR [1]: >32 µg/mL
- MIC K. pneumoniae ATCC 700603, MDR [2]: >64 µg/mL
- MIC E. coli ATCC 25922 (E. coli ATCC 25922): >64 µg/mL
- MIC P. aeruginosa GN_105, PmxR [3]: >32 µg/mL
- MIC K. pneumoniae ATCC 13883 (K. pneumoniae ATCC 13883): >64 µg/mL
- MIC K. pneumoniae GN_102 PmxR [4]: >32 µg/mL
- MIC A. baumannii ATCC 19606 (A. baumannii ATCC 19606): >64 µg/mL
- MIC S. aureus ATCC 25923, MSSA [5]: >32 µg/mL
- MIC K. pneumoniae ATCC BAA-2146, NDM-1 pos [6]: >64 µg/mL
- MIC P. aeruginosa GN_043, PmxR ([7]; P. aeruginosa GN_043, PmxR): >32 µg/mL
- MIC A. baumannii GN_093 PmxR (A. baumannii GN_093 PmxR): >32 µg/mL

SMILES: CCCCCCC[C@@H](O)CC(=O)N[C@H](CCN)C(=O)N[C@H]1CCNC(=O)[C@H](C)NC(=O)[C@H](CCN)NC(=O)[C@H](CCN)NC(=O)[C@H](CC(C)C)NC(=O)[C@@H](Cc2ccccc2)NC(=O)[C@H](CCN)NC1=O [compound 4943, 3(R)OH-nC9CO-D-Dab-cyc[L-Dab-L-Dab-D-Phe-L-Leu-L-Dab-L-Dab-L-Ala]] ({Decanoyl(3R-OH)}-[dDab][Dab][Dab][dF]L[Dab][Dab]A; lactam 2-C)
- CC50 at 24 h (in vitro): > 300 µM
- MIC P. aeruginosa ATCC 27853 (P. aeruginosa ATCC 27853): 1 µg/mL (≈ 0.998 µM)
- MIC K. pneumoniae GN_106, PmxR [1]: 16 µg/mL (≈ 16 µM)
- MIC K. pneumoniae ATCC 700603, MDR [2]: 8 µg/mL (≈ 7.98 µM)
- MIC E. coli ATCC 25922 (E. coli ATCC 25922): 8 µg/mL (≈ 7.98 µM)
- MIC P. aeruginosa GN_105, PmxR [3]: 16 µg/mL (≈ 16 µM)
- MIC K. pneumoniae ATCC 13883 (K. pneumoniae ATCC 13883): 16 µg/mL (≈ 16 µM)
- MIC K. pneumoniae GN_102 PmxR [4]: 8 µg/mL (≈ 7.98 µM)
- MIC A. baumannii ATCC 19606 (A. baumannii ATCC 19606): >32 µg/mL
- MIC S. aureus ATCC 25923, MSSA [5]: >32 µg/mL
- MIC K. pneumoniae ATCC BAA-2146, NDM-1 pos [6]: 8 µg/mL (≈ 7.98 µM)
- MIC P. aeruginosa GN_043, PmxR ([7]; polymyxin-resistant): 0.5 µg/mL (≈ 0.499 µM)
- MIC A. baumannii GN_093 PmxR (A. baumannii GN_093 PmxR): 32 µg/mL (≈ 31.9 µM)

SMILES: CCCCCCC[C@@H](O)CC(=O)N[C@@H](C)C(=O)N[C@H]1CCNC(=O)[C@H](CC(C)C)NC(=O)[C@H](CCN)NC(=O)[C@H](CCN)NC(=O)[C@H](CC(C)C)NC(=O)[C@@H](Cc2ccccc2)NC(=O)[C@H](CCN)NC1=O [compound 4950, 3(R)OH-nC9CO-L-Ala-cyc[L-Dab-L-Dab-D-Phe-L-Leu-L-Dab-L-Dab-L-Leu]] ({Decanoyl(3R-OH)}-A[Dab][Dab][dF]L[Dab][Dab]L; lactam 2-C)
- CC50 at 24 h (in vitro): 286 µM
- MIC, P. aeruginosa ATCC 27853 (P. aeruginosa ATCC 27853): 16 µg/mL (≈ 15.8 µM)
- MIC K. pneumoniae GN_106, PmxR [1]: 32 µg/mL (≈ 31.5 µM)
- MIC, K. pneumoniae ATCC 700603, MDR [2]: 16 µg/mL (≈ 15.8 µM)
- MIC, E. coli ATCC 25922 (E. coli ATCC 25922): 32 µg/mL (≈ 31.5 µM)
- MIC P. aeruginosa GN_105, PmxR [3]: 32 µg/mL (≈ 31.5 µM)
- MIC, K. pneumoniae ATCC 13883 (K. pneumoniae ATCC 13883): 16 µg/mL (≈ 15.8 µM)
- MIC K. pneumoniae GN_102 PmxR [4]: 8 µg/mL (≈ 7.88 µM)
- MIC, A. baumannii ATCC 19606 (A. baumannii ATCC 19606): >32 µg/mL
- MIC, S. aureus ATCC 25923, MSSA [5]: >32 µg/mL
- MIC, K. pneumoniae ATCC BAA-2146, NDM-1 pos [6]: 16 µg/mL (≈ 15.8 µM)
- MIC P. aeruginosa GN_043, PmxR ([7]; Table 6, polymyxin-resistant): 16 µg/mL (≈ 15.8 µM)
- MIC A. baumannii GN_093 PmxR (A. baumannii GN_093 PmxR): >32 µg/mL

SMILES: CCCCCCC[C@@H](O)CC(=O)N[C@H](CCN)C(=O)N[C@H]1CCNC(=O)[C@H](CCCNC(=N)N)NC(=O)[C@H](CCN)NC(=O)[C@H](CCN)NC(=O)[C@H](CC(C)C)NC(=O)[C@@H](Cc2ccccc2)NC(=O)[C@H](CCN)NC1=O [compound 6508, 3(R)OH-nC9CO-D-Dab-cyc[L-Dab-L-Dab-D-Phe-L-Leu-L-Dab-L-Dab-L-Arg]] ({Decanoyl(3R-OH)}-[dDab][Dab][Dab][dF]L[Dab][Dab]R; lactam 2-C)
- CC50 at 24 h (in vitro): 142 µM
- MIC P. aeruginosa ATCC 27853 (P. aeruginosa ATCC 27853): 2 µg/mL (≈ 1.84 µM)
- MIC K. pneumoniae GN_106, PmxR [1]: >32 µg/mL
- MIC K. pneumoniae ATCC 700603, MDR [2]: 16 µg/mL (≈ 14.7 µM)
- MIC E. coli ATCC 25922 (E. coli ATCC 25922): 16 µg/mL (≈ 14.7 µM)
- MIC P. aeruginosa GN_105, PmxR [3]: 32 µg/mL (≈ 29.4 µM)
- MIC K. pneumoniae ATCC 13883 (K. pneumoniae ATCC 13883): >64 µg/mL
- MIC K. pneumoniae GN_102 PmxR [4]: >32 µg/mL
- MIC A. baumannii ATCC 19606 (A. baumannii ATCC 19606): >64 µg/mL
- MIC S. aureus ATCC 25923, MSSA [5]: >32 µg/mL
- MIC K. pneumoniae ATCC BAA-2146, NDM-1 pos [6]: >64 µg/mL
- MIC P. aeruginosa GN_043, PmxR ([7]; polymyxin-resistant): >32 µg/mL
- MIC A. baumannii GN_093 PmxR (A. baumannii GN_093 PmxR): >32 µg/mL
